Drawing on the Kinase Knowledgebase extract (Sharma et al. 2016), this text covers IC50 for 60 molecules.

The assay addresses PIK3CA (human) (UniProt P42336). In words: Assessment of PIK3CA Kinase Activity.

Sequence of PIK3CA (human) (P42336 whole entry, looked up): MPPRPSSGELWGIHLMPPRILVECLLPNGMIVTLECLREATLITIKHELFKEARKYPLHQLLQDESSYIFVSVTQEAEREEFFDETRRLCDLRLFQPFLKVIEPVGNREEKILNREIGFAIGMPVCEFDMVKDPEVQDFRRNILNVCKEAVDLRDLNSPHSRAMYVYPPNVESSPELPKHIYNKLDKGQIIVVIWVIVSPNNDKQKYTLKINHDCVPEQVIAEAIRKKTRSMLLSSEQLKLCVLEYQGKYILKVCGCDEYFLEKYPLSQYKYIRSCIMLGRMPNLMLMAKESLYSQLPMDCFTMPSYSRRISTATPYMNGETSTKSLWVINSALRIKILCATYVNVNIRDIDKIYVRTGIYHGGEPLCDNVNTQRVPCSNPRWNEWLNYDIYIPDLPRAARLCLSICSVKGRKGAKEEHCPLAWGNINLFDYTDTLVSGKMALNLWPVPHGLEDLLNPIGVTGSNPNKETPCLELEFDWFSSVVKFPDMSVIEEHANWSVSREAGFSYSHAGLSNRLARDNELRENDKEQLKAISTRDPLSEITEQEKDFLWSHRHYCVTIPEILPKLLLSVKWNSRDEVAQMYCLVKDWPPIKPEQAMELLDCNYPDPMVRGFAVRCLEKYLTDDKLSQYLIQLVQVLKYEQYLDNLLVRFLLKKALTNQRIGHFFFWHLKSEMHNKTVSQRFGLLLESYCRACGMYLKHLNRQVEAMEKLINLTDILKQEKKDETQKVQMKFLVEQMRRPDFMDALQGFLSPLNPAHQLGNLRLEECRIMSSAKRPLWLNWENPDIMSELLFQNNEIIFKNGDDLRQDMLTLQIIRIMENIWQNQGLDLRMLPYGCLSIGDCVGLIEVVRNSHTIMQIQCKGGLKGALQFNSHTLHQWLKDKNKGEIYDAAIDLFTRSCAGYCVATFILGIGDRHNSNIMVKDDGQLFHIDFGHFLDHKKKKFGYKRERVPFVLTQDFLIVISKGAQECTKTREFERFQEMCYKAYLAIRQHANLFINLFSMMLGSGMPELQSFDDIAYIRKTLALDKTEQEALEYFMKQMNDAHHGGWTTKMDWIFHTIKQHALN

Usually IC50 stands for the concentration needed to halve the response being measured. Higher therefore signals weaker potency in that assay. For the molecule `CN(c1nn2c(-c3cnc(N)c(C(F)(F)F)c3)cnc2s1)C1CCC(=NOCCF)CC1` (stereo not given), the IC50 lay in the range of 50 to 1000 nM.

`Nc1ncc(-c2cnc3sc(NCC4CCNCC4)nn23)cc1C(F)(F)F`: the IC50 lay in the range of 50 to 1000 nM.

The molecule `NCC(=O)O[C@H]1CC[C@H](Nc2nn3c(-c4cnc(N)c(C(F)(F)F)c4)cnc3s2)CC1` showed an IC50 of 1 to 50 nM. The molecule `CCNC(=O)N1CCC(CNc2nn3c(-c4cnc(N)c(C(F)(F)F)c4)cnc3s2)CC1` showed an IC50 of 1 to 50 nM. For `CN1CCC(CNc2nn3c(-c4cnc(N)c(C(F)(F)F)c4)cnc3s2)CC1` the value was 301 nM. As for `CS(=O)(=O)NC1CCN(c2nn3c(-c4cnc(N)c(C(F)(F)F)c4)cnc3s2)CC1`, the IC50 was 162 nM. Turning to `Nc1ncc(-c2cnc3sc(N4CC5(CCNCC5)C4)nn23)cc1C(F)(F)F`, the IC50 was 50 to 1000 nM. The result for `COC1CCN(c2nn3c(-c4cnc(N)c(C(F)(F)F)c4)cnc3s2)CC1` reads 50 to 1000 nM.

Turning to `CS(=O)(=O)N1CCC(Nc2nn3c(-c4cncc(C#N)c4)cnc3s2)CC1`, the IC50 was in the range of 50 to 1000 nM. The molecule `CS(=O)(=O)N1CC2CN(c3nn4c(-c5cnc(N)c(C(F)(F)F)c5)cnc4s3)CC2C1` (stereo not given) came in with an IC50 of 34 nM. In turn, `Nc1ncc(-c2cnc3sc(N4CCCC(C(=O)O)C4)nn23)cc1C(F)(F)F` (stereo not given) came in with an IC50 of 50 to 1000 nM. Molecule `CC(C)(C)OC(=O)N1CCN(CCNc2nn3c(-c4cnc(N)c(C(F)(F)F)c4)cnc3s2)CC1` displayed a 50% inhibitory concentration (IC50) of 86 nM.

The molecule `CN(c1nn2c(-c3cnc(N)c(C(F)(F)F)c3)cnc2s1)C1CCN(C(=O)OC(C)(C)C)CC1` had an IC50 of 50 to 1000 nM. In the case of `Cc1cncc(-c2cnc3sc(NC4CCN(S(C)(=O)=O)CC4)nn23)c1`, the IC50 was in the range of 50 to 1000 nM.

Consider `CNC(=O)C1CCCN(c2nn3c(-c4cnc(N)c(C(F)(F)F)c4)cnc3s2)C1` (stereo not given), for which the IC50 worked out at 213 nM.

Consider `CCNC(=O)N1CCC(N(C)c2nn3c(-c4cnc(N)c(C(F)(F)F)c4)cnc3s2)CC1`, for which the IC50 was 50 to 1000 nM.

`Nc1ncc(-c2cnc3sc(N4CCCC(N)C4)nn23)cc1C(F)(F)F` (stereo not given): the IC50 lay within 50 to 1000 nM. With `Nc1ncc(-c2cnc3sc(NCCN4CCNCC4)nn23)cc1C(F)(F)F`, the IC50 lay in the range of 50 to 1000 nM. Consider `CC(C)(C)OC(=O)N1CCC2(CCCN(c3nn4c(-c5cnc(N)c(C(F)(F)F)c5)cnc4s3)C2)CC1`, for which the IC50 lay within 50 to 1000 nM. `Nc1ncc(-c2cnc3sc(NC4CCC(=NOCCF)CC4)nn23)cc1C(F)(F)F` (stereo not given) came in with an IC50 of 1 to 50 nM. The result for `CC(C)(C)OC(=O)NC1CCCN(c2nn3c(-c4cnc(N)c(C(F)(F)F)c4)cnc3s2)C1` (stereo not given) reads 230 nM.

As to `CC(C)(C)OC(=O)NC1CCN(c2nn3c(-c4cnc(N)c(C(F)(F)F)c4)cnc3s2)C1` (stereo not given), the IC50 was 177 nM. The result for `CS(=O)(=O)NCCNc1nn2c(-c3cnc(N)c(C(F)(F)F)c3)cnc2s1` reads 269 nM.

For the molecule `CS(=O)(=O)N1CC2(CCCN(c3nn4c(-c5cnc(N)c(C(F)(F)F)c5)cnc4s3)C2)C1`, the IC50 was in the range of 50 to 1000 nM.

In turn, `NCCNc1nn2c(-c3cnc(N)c(C(F)(F)F)c3)cnc2s1` showed a 50% inhibitory concentration (IC50) of 50 to 1000 nM. The molecule `CS(=O)(=O)N1CCC2(CC1)CN(c1nn3c(-c4cnc(N)c(C(F)(F)F)c4)cnc3s1)C2` registered an IC50 of 50 to 1000 nM. Molecule `CC(=O)NC1CCCN(c2nn3c(-c4cnc(N)c(C(F)(F)F)c4)cnc3s2)C1` (stereo not given) yielded an IC50 of 274 nM. The result for `CS(=O)(=O)N1CCC(Nc2nn3c(-c4cnc(N5CCNCC5)c(C(F)(F)F)c4)cnc3s2)CC1` reads 1400 nM; that for `CN(c1nn2c(-c3cnc(N)c(C(F)(F)F)c3)cnc2s1)[C@H]1CC[C@@](C)(O)CC1`, 50 to 1000 nM; that for `CCNC(=O)N[C@H]1CC[C@@H](Nc2nn3c(-c4cnc(N)c(C(F)(F)F)c4)c(Cl)nc3s2)CC1`, 50 to 1000 nM. The result for `CS(=O)(=O)N1CCC(Nc2nn3c(-c4cnc(N)c(C(F)(F)F)c4)c(Cl)nc3s2)CC1` reads 24 nM; that for `Nc1ncc(-c2cnc3sc(N[C@H]4CC[C@H](NS(=O)(=O)c5ccc(F)cc5F)CC4)nn23)cc1C(F)(F)F`, 50 to 1000 nM; that for `CC(C)(C)OC(=O)NCCCNc1nn2c(-c3cnc(N)c(C(F)(F)F)c3)cnc2s1`, 50 to 1000 nM.

`CCNC(=O)N[C@H]1CC[C@H](Nc2nn3c(-c4cnc(N)c(C(F)(F)F)c4)cnc3s2)CC1` gave an IC50 of 5 nM. For `CN(c1nn2c(-c3cnc(N)c(C(F)(F)F)c3)cnc2s1)[C@H]1CC[C@H](O)CC1` the value was 50 to 1000 nM; for `Nc1ncc(-c2c(Cl)nc3sc(N[C@H]4CC[C@@H](N)CC4)nn23)cc1C(F)(F)F`, 50 to 1000 nM. Turning to `CS(=O)(=O)N1CCN(c2nn3c(-c4cnc(N)c(C(F)(F)F)c4)cnc3s2)CC1`, the IC50 is 50 to 1000 nM. The result for `CN(c1nn2c(-c3cnc(N)c(C(F)(F)F)c3)cnc2s1)C1CCC(=NO)CC1` (stereo not given) reads 82 nM. Molecule `CC(C)(C)OC(=O)N1CCC2(CC1)CCN(c1nn3c(-c4cnc(N)c(C(F)(F)F)c4)cnc3s1)CC2` showed an IC50 of 1600 nM.

For the molecule `NCCCNc1nn2c(-c3cnc(N)c(C(F)(F)F)c3)cnc2s1`, the IC50 was in the range of 50 to 1000 nM. For `Nc1ncc(-c2cnc3sc(N[C@H]4CC[C@@H](O)CC4)nn23)cc1C(F)(F)F` the value was 77 nM; for `Cc1nc2sc(NC3CCN(S(C)(=O)=O)CC3)nn2c1-c1cnc(N)c(C(F)(F)F)c1`, 1 to 50 nM. For `CS(=O)(=O)NCC1CCCN(c2nn3c(-c4cnc(N)c(C(F)(F)F)c4)cnc3s2)C1` (stereo not given) the value was 102 nM; for `COc1cncc(-c2cnc3sc(NC4CCN(C(=O)OC(C)(C)C)CC4)nn23)c1`, 50 to 1000 nM. In turn, `CS(=O)(=O)N1CCC(Nc2nn3c(-c4cncc(C(F)(F)F)c4)cnc3s2)CC1` had an IC50 of 50 to 1000 nM. On to `C[C@]1(O)CC[C@@H](Nc2nn3c(-c4cnc(N)c(C(F)(F)F)c4)cnc3s2)CC1`, for which the half-inhibitory concentration (IC50) was found to be 22 nM.

Regarding `CN(c1nn2c(-c3cnc(N)c(C(F)(F)F)c3)cnc2s1)C1CCNCC1`, the IC50 lay within 50 to 1000 nM. As for `Nc1ncc(-c2c(Cl)nc3sc(N[C@H]4CC[C@H](O)CC4)nn23)cc1C(F)(F)F`, the IC50 is 104 nM.

Consider `C[C@]1(O)CC[C@H](Nc2nn3c(-c4cnc(N)c(C(F)(F)F)c4)cnc3s2)CC1`, for which the IC50 lay within 1 to 50 nM. The result for `Nc1ncc(-c2cnc3sc(N4CCN5CCNCC5C4)nn23)cc1C(F)(F)F` (stereo not given) reads 85 nM; that for `Nc1ncc(-c2cnc3sc(N4CCCNC4=O)nn23)cc1C(F)(F)F`, 170 nM; that for `CN(c1nn2c(-c3cnc(N)c(C(F)(F)F)c3)cnc2s1)[C@H]1CC[C@](C)(O)CC1`, 205 nM. The result for `CC(=O)N[C@H]1CC[C@H](Nc2nn3c(-c4cnc(N)c(C(F)(F)F)c4)cnc3s2)CC1` reads 50 to 1000 nM.

For `CO[C@H]1CC[C@H](N(C)c2nn3c(-c4cnc(N)c(C(F)(F)F)c4)cnc3s2)CC1`, the IC50 turned out to be 27 nM. For `Nc1ncc(-c2cnc3sc(N[C@H]4CC[C@H](N)CC4)nn23)cc1C(F)(F)F` the value was 42 nM; for `COc1cncc(-c2cnc3sc(NCCCNS(C)(=O)=O)nn23)c1`, 50 to 1000 nM; for `CN(c1nn2c(-c3cnc(N)c(C(F)(F)F)c3)cnc2s1)C1CCN(S(C)(=O)=O)CC1`, 62 nM. Turning to `Nc1ncc(-c2cnc3sc(NC4CCC5(CC4)OCCO5)nn23)cc1C(F)(F)F`, the half-inhibitory concentration (IC50) came to 34 nM. For `Nc1ncc(-c2c(Cl)nc3sc(N[C@H]4CC[C@H](N)CC4)nn23)cc1C(F)(F)F` the value was 109 nM; for `CC(C)(C)OC(=O)N[C@H]1CC[C@@H](Nc2nn3c(-c4cnc(N)c(C(F)(F)F)c4)cnc3s2)CC1`, 50 to 1000 nM.
